Data published in US20030166622A1, “Vitamin D derivatives with acyloxy groups in the side chains, process for their production, and the use for the production of pharmaceutical agents” (Schering AG, priority 2001, published 2003).
Entries after “also recorded” stand apart in the source; their conditions may differ.

Assays:
[1] = DNFB-induced allergic contact allergy in the mouse (DNFB-DTH); type: in vivo; conditions: for DR (Hypercalcemic threshold dose/ immunosuppressive threshold dose): therapeutic range, mouse, once daily intragastrically around sensitization, calcium level in urine as side-effect parameter; for activity in vivo (prevention of the formation of edemas): contact allergy in the mouse
Description: 58, 179-204 (1999)]. The model of the dinitrofluorobenzene (DNFB)-induced allergic contact allergy in the mouse represents an inflammatory skin disease with the background of an inflammatory reaction of the delayed type (delayed type hypersensitivity; DTH). The inflammatory phase of the contact allergy is triggered by a multi-phase reaction. A repeated contact with the topically effective contact allergen DNFB (25 il of a 0.5% (w/v) DNFB solution in acetone/olive oil 4:1 [v/v] on the shaved abdomen with a surface area of about 10 cm^2 on test days 0. and 1.) triggers an immune reaction, which results in the sensitization of the animals against the specific agent, without “visible” symptoms occurring. Only after a sensitization time of 4-5 days, in which populations of DNFB-specific lymphocytes of “memory” type have formed in the draining lymph nodes, can a renewed contact (20 il of a 0.5% (w/v) DNFB solution in acetone/olive oil 4:1 [v/v]) trigger an inflammatory skin reaction with the contact allergen at any skin area (here: on both ears, treated surface area/ear about 2 cm^2). This second phase, which is also referred to as the trigger or “challenge,” ends in an eczematous lesion on the second contact site. The evaluation of the extent of the inflammatory reaction or the success of treatment is performed routinely 24 hours after the triggering, since at this time, the parameters that are to be analyzed (ear thickness and cell infiltration as a yardstick for the edema) have reached a plateau. The model of the DNFB-induced contact allergy allows the examination of the action of systemically or topically administered test substances with immunosuppressive/immunomodulating or inflammation-inhibiting properties. In the study on immunomodulating properties of calcitriol derivatives, the latter are administered once daily intragastrically in physiological common salt solution (0.9% NaCl) with an admixture of 0.085% Myrj 53) around the time of sensitization (beginning two days before and one day before sensitization, on the day of sensitization and on day 1 and 2 after sensitization). As side-effect parameters that are typical of vitamin D, the determination of the calcium level in the urine of the treated animals is used at the latest 24 hours after the last treatment with the substance. The calcium content is determined by flame-photometry. The significance of differences occurring between substance groups and controls as well as between test substance and reference substance are supported with suitable statistic processes. The therapeutic range of the test substances and calcitriol as a reference substance is indicated as a dose ratio DR (DR=factor of hypercalcemic threshold dose/immunosuppressive threshold dose).

[2] = target: T1, vitamin D receptor (Sus scrofa, UniProt A3RGC1); experiment: calcitriol-receptor test (competition with 3H-calcitriol, protein extract from intestines of juvenile pigs); conditions: for KF (competition factor: concentration of test substance / reference substance at 50% competition): relative to unlabeled calcitriol, 3H-calcitriol 5x10^-10 mol/l, 2 hours at 4° C; for activity in vitro: result in words, summary of the in vitro tests of the table (calcitriol-receptor test and HL 60)
T1 sequence (A3RGC1 1-427): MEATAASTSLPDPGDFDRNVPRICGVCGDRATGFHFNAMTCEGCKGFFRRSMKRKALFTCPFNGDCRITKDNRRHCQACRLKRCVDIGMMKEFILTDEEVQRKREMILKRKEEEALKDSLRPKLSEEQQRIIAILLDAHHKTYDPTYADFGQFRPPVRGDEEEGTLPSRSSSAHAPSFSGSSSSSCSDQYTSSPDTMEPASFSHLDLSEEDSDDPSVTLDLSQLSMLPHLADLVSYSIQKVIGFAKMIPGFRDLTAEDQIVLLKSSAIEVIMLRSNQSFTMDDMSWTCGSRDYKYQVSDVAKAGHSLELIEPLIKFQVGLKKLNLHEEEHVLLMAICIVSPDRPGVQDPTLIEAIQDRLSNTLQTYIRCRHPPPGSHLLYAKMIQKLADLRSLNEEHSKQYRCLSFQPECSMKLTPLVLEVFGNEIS
Description: It is carried out using a protein extract from the intestines of juvenile pigs. […] To this end, 250 il of a charcoal-dextran suspension is fed to each test tube and incubated at 4° C. for 20 minutes. Then, the samples are centrifuged at 10,000 g for 5 minutes at 4° C. The supernatant is decanted and measured in a á-counter after 1 hour of equilibration in Picofluor 15™.
The competition curves that are obtained at various concentrations of test substance as well as of reference substance (unlabeled calcitriol) at constant concentration of the reference substance (^3H-calcitriol) are placed in relation to one another, and a competition factor (KF) is determined.
It is defined as a quotient of the concentrations of the respective test substance and the reference substance, which are necessary for 50% competition:
KF=Concentration of test substance at 50% competition
Concentration of reference substance at 50% competition

[3] = acute hypercalcemic action in rats (serum calcium after one-time subcutaneous administration); type: in vivo, rat; conditions: relative to calcitriol, male rats
Description: To determine the acute hypercalcemic action of various calcitriol derivatives, the test that is described below is carried out:
The action of control (solution base), reference substance (1,25-dihydroxy vitamin D3=calcitriol) and test substance is tested in each case after one-time subcutaneous administration in groups of 10 healthy male rats (140-170 g). During the testing time, the rats are kept in special cages to determine the excretion of water and mineral substances. Urine is collected in 2 fractions (0-16 hours and 16-22 hours). An oral dose of calcium (0.1 mmol of calcium in 6.5% alpha-hydroxypropyl cellulose, 5 ml/animal) replaces at 1600 hours the calcium intake that is lacking by food deprivation. At the end of the test, the animals are sacrificed by decapitation and exsanguinated to determine the serum-calcium values. For the primary screening test in vivo, an individual standard dose (200 ig/kg) is tested. For selected substances, the result is supported by establishing a dose-effect relation.
A hypercalcemic action is shown in serum-calcium level values that are higher than in the control.
The significance of differences occurring between substance groups and controls as well as between test substance and reference substance are supported with suitable statistical processes.

[4] = system: HL 60 cells; experiment: differentiation induction of HL 60 cells to macrophages (NBT reduction); type: cell-based, human; conditions: relative to calcitriol; 96 hours incubation
Description: The differentiation-stimulating action of calcitriol analogs is also detected quantitatively.
It is known in the literature [D. J. Mangelsdorf et al., J. Cell. Biol. 98, 391 (1984)] that the treatment of human leukemia cells (promyelocyte cell line HL 60) in vitro with calcitriol induces the differentiation of cells to macrophages.
HL 60 cells are cultivated in tissue culture medium (RPMI 10% fetal calf serum) at 37° C. in an atmosphere of 5% CO2 in air.
For substance testing, the cells are centrifuged off, and 2.0×10^5 cells/ml in phenol red-free tissue culture medium are taken up. The test substances are dissolved in ethanol and diluted to the desired concentration with tissue culture medium without phenol red. The dilution stages are mixed with the cell suspension at a ratio of 1:10, and 100 il each of this cell suspension that is mixed with substance is pipetted into an indentation of a 96-hole plate. For control, a cell suspension is mixed analogously with the solvent.
After incubation for 96 hours at 37° C. in 5% CO2 in air, 100 il of an NBT-TPA solution (nitro blue tetrazolium (NBT), final concentration in the batch of 1 mg/ml, tetradecanoyl phorbolmyristate-13-acetate (TPA), final concentration in the batch of 2×10^−7 mol/l) is pipetted into each indentation of the 96-hole plate in the cell suspension.
By incubation for 2 hours at 37° C. and 5% CO2 in air, NBT is reduced to insoluble formazan because of the intracellular oxygen radical release, stimulated by TPA, in the cells that are differentiated to macrophages.
To complete the reaction, the indentations of the 96-hole plate are suctioned off, and the cells are affixed to the bottom of the plate by adding methanol and dried after affixing. To dissolve the intracellular formazan crystals that are formed, 100 il of potassium hydroxide (2 mol/l) and 100 il of dimethyl sulfoxide are pipetted into each indentation and ultrasonically treated for 1 minute. The concentration of formazan is measured by spectrophotometry at 650 nm.
As a yardstick for the differentiation induction of HL 60 cells to macrophages, the concentration of formed formazan applies.

Compound | DR (Hypercalcemic threshold dose/ immunosuppressive threshold dose) [1] | KF (competition factor: concentration of test substance / reference substance at 50% competition) [2] | DR (Ca) (dose ratio for hypercalcemia, test substance dose/reference substance dose for comparable actions) [3] | DR (HL 60) (dose ratio test substance/reference substance for comparable semi-maximum actions) [4] | activity in vitro [2] | activity in vivo (prevention of the formation of edemas) ([1]; result in words) | therapeutic range (immunosuppressive threshold dose versus hypercalcemic threshold dose) ([1]; result in words, relative to compounds that have free hydroxy groups in the side chain)
C=C1C(=CC=C2CCCC3(C)C2CCC3C(C)C=CC(O)C2(c3ncc(CCCC)o3)CC2)CC(O)CC1O [(5Z,7E,22E)-(1S,3R,24R)-25-(5-butyloxazole-2-yl)-26,27-cyclo-9,10-secocholesta-5,7,10(19),22-tetraene-1,3,24-triol, reference compound] | 1,000 |  |  |  |  |  | 
C=C1/C(=C\C=C2/CCC[C@]3(C)[C@@H]([C@H](C)/C=C/[C@@H](O)C4(c5ncc(CCC)o5)CC4)CC[C@@H]23)C[C@@H](O)C[C@@H]1O [A, (5Z,7E,22E)-(1S,3R,24R)-25-(5-Propyloxazole-2-yl)-26,27-cyclo-9,10-secocholesta-5,7,10(19),22-tetraene-1,3,24-triol] |  | 2 | 300 | 1.9 |  |  | 
C=C1/C(=C\C=C2/CCC[C@]3(C)[C@@H]([C@H](C)/C=C/[C@@H](O)C4(c5ncc(C)o5)CC4)CC[C@@H]23)C[C@@H](O)C[C@@H]1O [B, (5Z,7E,22E)-(1S,3R,24R)-25-(5-Methyloxazole-2-yl)-26,27-cyclo-9,10-secocholesta-5,7,10(19),22-tetraene-1,3,24-triol] |  | 2 | >300 | 3.4 |  |  | 
C=C1C(=CC=C2CCCC3(C)C2CCC3C(C)C=CC(O)C2(c3ncc(CC)o3)CC2)CC(O)CC1O [C, (5Z,7E,22E)-(1S,3R,24R)-25-(5-Ethyloxazole-2-yl)-26,27-cyclo-9,10-secocholesta-5,7,10(19),22-tetraene-1,3,24-triol] |  | 3 | >300 | 1.3 |  |  | 
C=C1/C(=C\C=C2/CCC[C@]3(C)[C@@H]([C@H](C)CCCC(C)(C)O)CC[C@@H]23)C[C@@H](O)C[C@@H]1O [Calcitriol, 1,25-dihydroxy vitamin D3] | 1 |  | 1 | 1 |  |  | 
C=C1/C(=C\C=C2/CCC[C@]3(C)[C@@H]([C@H](C)CC[C@H](OC(C)=O)C4(c5ncc(CCCC)o5)CC4)CC[C@@H]23)C[C@@H](O)C[C@@H]1O [Compound 3a, (5Z,7E)-(1S,3R,24S)-24-Acetoxy-25-(5-butyloxazole-2-yl)-26,27-cyclo-9,10-secocholesta-5,7,10(19)-triene-1,3-diol] |  | >100 | >1000 | >170 | inactivity; also recorded: deficient activity | therapeutically active in vivo | 
C=C1/C(=C\C=C2/CCC[C@]3(C)[C@@H]([C@H](C)CC[C@@H](OC(C)=O)C4(c5ncc(CCCC)o5)CC4)CC[C@@H]23)C[C@@H](O)C[C@@H]1O [Compound 3b, (5Z,7E)-(1S,3R,24R)-24-(Acetoxy)-25-(5-butyloxazole-2-yl)-26,27-cyclo-9,10-secocholesta-5,7,10(19)-triene-1,3-diol] |  | >100 | >1000 | >170 | inactivity; also recorded: deficient activity | therapeutically active in vivo | 
C=C1/C(=C\C=C2/CCC[C@]3(C)[C@@H]([C@H](C)CC[C@@H](OC(=O)C(C)(C)C)C4(c5ncc(CCCC)o5)CC4)CC[C@@H]23)C[C@@H](O)C[C@@H]1O [Compound 5b] | 20,000 | >100 | >1000 | >170 | inactivity; also recorded: deficient activity | therapeutically active in vivo | 
C=C1/C(=C\C=C2/CCC[C@]3(C)[C@@H]([C@H](C)CC[C@@H](OC(=O)NC)C4(c5ncc(CCCC)o5)CC4)CC[C@@H]23)C[C@@H](O)C[C@@H]1O [Compound 11b, (5Z,7E)-(1S,3R,24R)-25-(5-Butyloxazole-2-yl)-24-[[(methylamino)-carbonyl]oxy]-26,27-cyclo-9,10-secocholesta-5,7,10(19)-triene-1,3-diol] |  |  |  |  |  |  | clearly improved
C=C1/C(=C\C=C2/CCC[C@]3(C)[C@@H]([C@H](C)/C=C/[C@@H](O)C4(c5ncc(CCCCC)o5)CC4)CC[C@@H]23)C[C@@H](O)C[C@@H]1O [D, (5Z,7E,22E)-(1S,3R,24R)-25-(5-Pentyloxazole-2-yl)-26,27-cyclo-9,10-secocholesta-5,7,10(19),22-tetraene-1,3,24-triol] |  | 4 | >300 | >100 |  |  | 
